# System: pseudoviral particles bearing the Spike glycoprotein from SARS-CoV-2
# Assay: microbe, parasite or virus in culture
# Assay type: cell-based
# Conditions: Severe acute respiratory syndrome coronavirus 2, 293T/ACE2, read-out: IC50 SARS-CoV-2, Table 1; pseudovirus, 293T-ACE2 cells, compounds up to 100 µM
row,Structure (SMILES),IC50 [µM]
1,CCN(C)C[C@@H](O)COc1cccc(Br)c1 [Compound 52],> 100
2,CCN(CC)C[C@@H](O)COc1ccccc1 [Compound 47],> 100
3,COc1ccc(CNC[C@@H](O)COc2cc(Br)cc(OC[C@H](O)CNCc3ccc(OC)cc3)c2)cc1 [Compound 38],1.03
4,CC(C)CNC[C@@H](O)COc1cccc(F)c1 [Compound 55],> 100
5,O[C@@H](COc1cccc(OC[C@H](O)CN2CCOCC2)c1)CN1CCOCC1 [Compound 16],> 100
6,O[C@@H](COc1ccccc1)CN1CCCCC1 [Compound 42],1.35
7,C=CCNC[C@@H](O)COc1cccc(OC[C@H](O)CNCC=C)c1 [Compound 21],47.9
8,CN(C)C[C@@H](O)COc1cccc(OC[C@H](O)CN(C)C)c1 [Compound 15],1.64
9,CC(C)CNC[C@@H](O)COc1ccccc1 [Compound 44],> 100
10,CC(C)CNC[C@@H](O)COc1cccc(C(C)(C)C)c1 [Compound 61],> 100
11,CN(C)C[C@@H](O)COc1cccc(C(C)(C)C)c1 [Compound 62],84.7
12,C=CCNC[C@@H](O)COc1cc(Br)cc(OC[C@H](O)CNCC=C)c1 [Compound 35],0.7
13,CCN(C)C[C@@H](O)COc1ccccc1 [Compound 46],> 100
14,CCN(C)C[C@@H](O)COc1cccc(C(C)(C)C)c1 [Compound 63],> 100
15,O[C@H](CNC1CCOCC1)COc1cccc(OC[C@H](O)CNC2CCOCC2)c1 [Compound 24],0.38
16,CN(C)C[C@@H](O)COc1cccc(Br)c1 [Compound 51],> 100
17,CC(C)CNC[C@@H](O)COc1cccc(Br)c1 [Compound 50],> 100
18,CC(C)CNC[C@@H](O)COc1cc(Br)cc(OC[C@H](O)CNCC(C)C)c1 [Compound 36],0.32
19,CNC[C@@H](O)COc1cccc(OC[C@H](O)CNC)c1 [Compound 25],> 100

row,Structure (SMILES),IC50 [µM]
1,OC(COc1cccc(OCC(O)CN2CCCCC2)c1)CN1CCCCC1 (stereo not drawn) [VE607],2.66
2,CCN(CC)C[C@@H](O)COc1cccc(F)c1 [Compound 58],> 100
3,CCN(CC)C[C@@H](O)COc1cc(Br)cc(OC[C@H](O)CN(CC)CC)c1 [Compound 28],1.79
4,COc1ccc(CNC[C@@H](O)COc2cccc(OC[C@H](O)CNCc3ccc(OC)cc3)c2)cc1 [Compound 22],0.57
5,CN(C)C[C@@H](O)COc1ccccc1 [Compound 45],> 100
6,CCN(CC)C[C@@H](O)COc1cccc(C(C)(C)C)c1 [Compound 64],> 100
7,CNC[C@@H](O)COc1cccc(Br)c1 [Compound 49],> 100
8,CN(C)C[C@@H](O)COc1cccc(F)c1 [Compound 56],> 100
9,O[C@H](CNCc1ccncc1)COc1cc(Br)cc(OC[C@H](O)CNCc2ccncc2)c1 [Compound 37],1.37
10,CN1CCN(C[C@@H](O)COc2ccccc2)CC1 [Compound 48],> 100
11,O[C@H](CNCc1ccccc1)COc1cc(Br)cc(OC[C@H](O)CNCc2ccccc2)c1 [Compound 34],0.49
12,CNC[C@@H](O)COc1cccc(C(C)(C)C)c1 [Compound 60],> 100
13,O[C@@H](COc1cccc(OC[C@H](O)CN2CCC(O)(c3ccc(Cl)cc3)CC2)c1)CN1CCC(O)(c2ccc(Cl)cc2)CC1 [Compound 19],0.52
14,CNC[C@@H](O)COc1cccc(F)c1 [Compound 54],> 100
15,O[C@@H](COc1cc(Br)cc(OC[C@H](O)CN2CCOCC2)c1)CN1CCOCC1 [Compound 29],2.65
16,CN1CCN(C[C@@H](O)COc2cccc(Br)c2)CC1 [Compound 53],> 100
17,CN1CCN(C[C@@H](O)COc2cccc(C(C)(C)C)c2)CC1 [Compound 65],45.7
18,CN1CCN(C[C@@H](O)COc2cccc(OC[C@H](O)CN3CCN(C)CC3)c2)CC1 [Compound 17],1.76

# System: pseudoviral particles carrying SARS-CoV-1 S
# Assay: microbe, parasite or virus in culture
# Assay type: cell-based
# Conditions: Severe acute respiratory syndrome coronavirus, 293T/ACE2, read-out: IC50 SARS-CoV-1
row,Structure (SMILES),IC50 [µM]
1,CCN(C)C[C@@H](O)COc1cccc(Br)c1 [Compound 52],51.8
2,CCN(CC)C[C@@H](O)COc1ccccc1 [Compound 47],> 100
3,COc1ccc(CNC[C@@H](O)COc2cc(Br)cc(OC[C@H](O)CNCc3ccc(OC)cc3)c2)cc1 [Compound 38],0.66
4,CC(C)CNC[C@@H](O)COc1cccc(F)c1 [Compound 55],> 100
5,O[C@@H](COc1cccc(OC[C@H](O)CN2CCOCC2)c1)CN1CCOCC1 [Compound 16],> 100
6,O[C@@H](COc1ccccc1)CN1CCCCC1 [Compound 42],0.912
7,C=CCNC[C@@H](O)COc1cccc(OC[C@H](O)CNCC=C)c1 [Compound 21],41.1
8,CN(C)C[C@@H](O)COc1cccc(OC[C@H](O)CN(C)C)c1 [Compound 15],2.54
9,CC(C)CNC[C@@H](O)COc1ccccc1 [Compound 44],5.95
10,CC(C)CNC[C@@H](O)COc1cccc(C(C)(C)C)c1 [Compound 61],73.7
11,CN(C)C[C@@H](O)COc1cccc(C(C)(C)C)c1 [Compound 62],0.934
12,C=CCNC[C@@H](O)COc1cc(Br)cc(OC[C@H](O)CNCC=C)c1 [Compound 35],0.62
13,CCN(C)C[C@@H](O)COc1ccccc1 [Compound 46],> 100
14,CCN(C)C[C@@H](O)COc1cccc(C(C)(C)C)c1 [Compound 63],4.66
15,O[C@H](CNC1CCOCC1)COc1cccc(OC[C@H](O)CNC2CCOCC2)c1 [Compound 24],> 100
16,CN(C)C[C@@H](O)COc1cccc(Br)c1 [Compound 51],17.3
17,CC(C)CNC[C@@H](O)COc1cccc(Br)c1 [Compound 50],> 100
18,CC(C)CNC[C@@H](O)COc1cc(Br)cc(OC[C@H](O)CNCC(C)C)c1 [Compound 36],0.22
19,CNC[C@@H](O)COc1cccc(OC[C@H](O)CNC)c1 [Compound 25],0.45

row,Structure (SMILES),IC50 [µM]
1,OC(COc1cccc(OCC(O)CN2CCCCC2)c1)CN1CCCCC1 (stereo not drawn) [VE607],0.74
2,CCN(CC)C[C@@H](O)COc1cccc(F)c1 [Compound 58],> 100
3,CCN(CC)C[C@@H](O)COc1cc(Br)cc(OC[C@H](O)CN(CC)CC)c1 [Compound 28],17.5
4,COc1ccc(CNC[C@@H](O)COc2cccc(OC[C@H](O)CNCc3ccc(OC)cc3)c2)cc1 [Compound 22],1.85
5,CN(C)C[C@@H](O)COc1ccccc1 [Compound 45],13.9
6,CCN(CC)C[C@@H](O)COc1cccc(C(C)(C)C)c1 [Compound 64],57.4
7,CNC[C@@H](O)COc1cccc(Br)c1 [Compound 49],> 100
8,CN(C)C[C@@H](O)COc1cccc(F)c1 [Compound 56],19.5
9,O[C@H](CNCc1ccncc1)COc1cc(Br)cc(OC[C@H](O)CNCc2ccncc2)c1 [Compound 37],1.29
10,CN1CCN(C[C@@H](O)COc2ccccc2)CC1 [Compound 48],> 100
11,O[C@H](CNCc1ccccc1)COc1cc(Br)cc(OC[C@H](O)CNCc2ccccc2)c1 [Compound 34],0.34
12,CNC[C@@H](O)COc1cccc(C(C)(C)C)c1 [Compound 60],45.5
13,O[C@@H](COc1cccc(OC[C@H](O)CN2CCC(O)(c3ccc(Cl)cc3)CC2)c1)CN1CCC(O)(c2ccc(Cl)cc2)CC1 [Compound 19],1.91
14,CNC[C@@H](O)COc1cccc(F)c1 [Compound 54],55
15,O[C@@H](COc1cc(Br)cc(OC[C@H](O)CN2CCOCC2)c1)CN1CCOCC1 [Compound 29],30.5
16,CN1CCN(C[C@@H](O)COc2cccc(Br)c2)CC1 [Compound 53],> 100
17,CN1CCN(C[C@@H](O)COc2cccc(C(C)(C)C)c2)CC1 [Compound 65],22
18,CN1CCN(C[C@@H](O)COc2cccc(OC[C@H](O)CN3CCN(C)CC3)c2)CC1 [Compound 17],19.9

# System: pseudoviral particles carrying VSV-G
# Assay: microbe, parasite or virus in culture
# Assay type: cell-based
# Conditions: Vesicular stomatitis virus, 293T/ACE2, read-out: IC50 VSV-G
row,Structure (SMILES),IC50 [µM]
1,CCN(C)C[C@@H](O)COc1cccc(Br)c1 [Compound 52],> 100
2,CCN(CC)C[C@@H](O)COc1ccccc1 [Compound 47],> 100
3,COc1ccc(CNC[C@@H](O)COc2cc(Br)cc(OC[C@H](O)CNCc3ccc(OC)cc3)c2)cc1 [Compound 38],4.09
4,CC(C)CNC[C@@H](O)COc1cccc(F)c1 [Compound 55],> 100
5,O[C@@H](COc1cccc(OC[C@H](O)CN2CCOCC2)c1)CN1CCOCC1 [Compound 16],> 100
6,O[C@@H](COc1ccccc1)CN1CCCCC1 [Compound 42],> 100
7,C=CCNC[C@@H](O)COc1cccc(OC[C@H](O)CNCC=C)c1 [Compound 21],> 100
8,CN(C)C[C@@H](O)COc1cccc(OC[C@H](O)CN(C)C)c1 [Compound 15],70.7
9,CC(C)CNC[C@@H](O)COc1ccccc1 [Compound 44],> 100
10,CC(C)CNC[C@@H](O)COc1cccc(C(C)(C)C)c1 [Compound 61],> 100
11,CN(C)C[C@@H](O)COc1cccc(C(C)(C)C)c1 [Compound 62],> 100
12,C=CCNC[C@@H](O)COc1cc(Br)cc(OC[C@H](O)CNCC=C)c1 [Compound 35],26.4
13,CCN(C)C[C@@H](O)COc1ccccc1 [Compound 46],> 100
14,CCN(C)C[C@@H](O)COc1cccc(C(C)(C)C)c1 [Compound 63],> 100
15,O[C@H](CNC1CCOCC1)COc1cccc(OC[C@H](O)CNC2CCOCC2)c1 [Compound 24],1.38
16,CN(C)C[C@@H](O)COc1cccc(Br)c1 [Compound 51],> 100
17,CC(C)CNC[C@@H](O)COc1cccc(Br)c1 [Compound 50],> 100
18,CC(C)CNC[C@@H](O)COc1cc(Br)cc(OC[C@H](O)CNCC(C)C)c1 [Compound 36],5.05
19,CNC[C@@H](O)COc1cccc(OC[C@H](O)CNC)c1 [Compound 25],2.69

row,Structure (SMILES),IC50 [µM]
1,OC(COc1cccc(OCC(O)CN2CCCCC2)c1)CN1CCCCC1 (stereo not drawn) [VE607],> 100
2,CCN(CC)C[C@@H](O)COc1cccc(F)c1 [Compound 58],> 100
3,CCN(CC)C[C@@H](O)COc1cc(Br)cc(OC[C@H](O)CN(CC)CC)c1 [Compound 28],> 100
4,COc1ccc(CNC[C@@H](O)COc2cccc(OC[C@H](O)CNCc3ccc(OC)cc3)c2)cc1 [Compound 22],2.85
5,CN(C)C[C@@H](O)COc1ccccc1 [Compound 45],> 100
6,CCN(CC)C[C@@H](O)COc1cccc(C(C)(C)C)c1 [Compound 64],> 100
7,CNC[C@@H](O)COc1cccc(Br)c1 [Compound 49],> 100
8,CN(C)C[C@@H](O)COc1cccc(F)c1 [Compound 56],> 100
9,O[C@H](CNCc1ccncc1)COc1cc(Br)cc(OC[C@H](O)CNCc2ccncc2)c1 [Compound 37],3.89
10,CN1CCN(C[C@@H](O)COc2ccccc2)CC1 [Compound 48],> 100
11,O[C@H](CNCc1ccccc1)COc1cc(Br)cc(OC[C@H](O)CNCc2ccccc2)c1 [Compound 34],4.71
12,CNC[C@@H](O)COc1cccc(C(C)(C)C)c1 [Compound 60],> 100
13,O[C@@H](COc1cccc(OC[C@H](O)CN2CCC(O)(c3ccc(Cl)cc3)CC2)c1)CN1CCC(O)(c2ccc(Cl)cc2)CC1 [Compound 19],1.35
14,CNC[C@@H](O)COc1cccc(F)c1 [Compound 54],> 100
15,O[C@@H](COc1cc(Br)cc(OC[C@H](O)CN2CCOCC2)c1)CN1CCOCC1 [Compound 29],> 100
16,CN1CCN(C[C@@H](O)COc2cccc(Br)c2)CC1 [Compound 53],> 100
17,CN1CCN(C[C@@H](O)COc2cccc(C(C)(C)C)c2)CC1 [Compound 65],> 100
18,CN1CCN(C[C@@H](O)COc2cccc(OC[C@H](O)CN3CCN(C)CC3)c2)CC1 [Compound 17],74.9
